Format in all cases: cell-based, human
Test [1] relates to H1975 (EGFR L858R/T790M double mutation). The experiment in a line: Cell antiproliferative assay (CTG, 72 h), H1975. To be noted: Table 2, H1975 cells. As to the method: (§1) Test Example 1 Cell Antiproliferative Assay
(§2) H1975: with EGFR: L858R/T790M double mutation; PC-9 with EGFR exon 19 deletion, HCC827 with exon 19 deletion mutation. CellCounting-Lite2.0, Trypsin EDTA, 37° C. CO2 incubator, cell counter, EnVision Serial No.1050454. II. Experimental preparation:
(§3) • (A) Trypsin EDTA was used to digest log-phase cells, medium was added to terminate the reaction, and a cell suspension was made by blowing and mixing with a pipette. • (B) Cell concentration was determined using Vi-cell, and a suspension of 15,000-25,000 cells per milliliter was made depending on the purpose of the experiment and the characteristics of the cells. • (C) After the cell suspension was prepared, it was gently mixed and 100 microliters per well was added so that the density of cells to be tested was 1500-2500 per well.
(§4) • (A) About 2 mg of compound was weighed, and the volume of DMSO required was calculated according to the formula: compound mass (mg)*compound purity (%)/compound molecular weight*1000 • (B) The inoculated cell culture plates were incubated in an incubator and the compounds with concentration gradient were added after about 24 hours. • (C)10 Mm of compound stock solution was diluted to […] with medium, and 50 Mm of compound solution was added sequentially to the second column of the deep-well plate, and […] of medium containing 0.5% DMSO was added to the third to eleventh columns. • (D) Gradient dilution: 125 μl of solution was pipetted from the second column and added to the third column, after mixing; another 125 μl of solution was pipetted from the third column and added to the fourth column, and the operation was repeated until the tenth column. • (E)25 μl of compound was pipetted from the deep-well plate into a 96-well culture plate using a multichannel pipette, and each compound was repeated three times on the 96-well plate. A maximum concentration of 10,000 nm with concentration gradient of 1:4 was eventually formed on the 96-well plate.
(§5) • (A)96-well plates were incubated in an incubator for 72 h. The effect of the compounds was observed under an inverted microscope. • (B)25 μl of CTG solution was added to each well, the plate was put on shaker for 10 minutes and the […] of each well was read.
(§6) The cell viability rate (% Cell Viability) was calculated using the following formula: • % Cell Viability=100%×(Lum_Sample-Lum_LC)/(Lum_HC-Lum_LC) • Lum_HC: Cell reading of 0.1% DMSO control • Lum_Sample: Cell reading with compound added • Lum_LC: Reading of Blank media • IC50 values were obtained by curve fitting with GraphPad Prism 8 software.

Test [2] concerns PC-9 (EGFR exon 19 deletion). The experiment in a line: Cell antiproliferative assay (CTG, 72 h), PC-9. Particulars: Table 2, PC-9 cells. As to the method: as §1, §2, §3, §4, §5, §6
In test [3] the test system is HCC827 (exon 19 deletion mutation). The experiment in a line: Cell antiproliferative assay (CTG, 72 h), HCC827. To be noted: Table 2, HCC827 cells. On the procedure:
as §1, §2, §3, §4, §5, §6

A value given as a limit tells only on which side of the number the result lay.

What is called IC50 is the concentration needed to halve the response being measured. A higher IC50 goes with weaker potency in that assay.

Regarding `COc1cc(N2CCN(C(=O)CN3CCC(c4ccc(NC5CCC(=O)NC5=O)cc4)CC3)CC2)ccc1Nc1ncc(Cl)c(Nc2ccccc2)n1` (stereo not shown) [Compound T-01], the IC50 lay within 10 to 100 nM in test [1] (Homo sapiens, NCI-H1975, 72 h); 100 to 1000 nM in test [2] (Homo sapiens, PC-9, 72 h); 100 to 1000 nM in test [3] (Homo sapiens, HCC827, 72 h).
As for `COc1cc(N2CCN(C(=O)CN3CCC(c4ccc(NC5CCC(=O)NC5=O)cc4)CC3)CC2)ccc1Nc1ncc(C(F)(F)F)c(Nc2ccccc2)n1` (stereo not shown) [Compound T-02], the 50% inhibitory concentration (IC50) was 10 to 100 nM in test [1] (Homo sapiens, NCI-H1975, 72 h); 100 to 1000 nM in test [2] (Homo sapiens, PC-9, 72 h); ≥ 1000 nM in test [3] (Homo sapiens, HCC827, 72 h).
Turning to `COc1cc(N2CCN(C(=O)CN3CCC(c4ccc(NC5CCC(=O)NC5=O)cc4F)CC3)CC2)ccc1Nc1ncc(Cl)c(Nc2ccccc2)n1` (stereo not shown) [Compound T-04], the IC50 in test [1] (Homo sapiens, NCI-H1975, 72 h) was 10 to 100 nM; in test [2] (Homo sapiens, PC-9, 72 h) it was 100 to 1000 nM; in test [3] (Homo sapiens, HCC827, 72 h) it was ≥ 1000 nM.
As to `COc1cc(N2CCN(C(=O)CN3CCC(c4ccc(NC5CCC(=O)NC5=O)cc4)CC3)CC2)ccc1Nc1ncc(Cl)c(Nc2cccc(F)c2)n1` (stereo not shown) [Compound T-09], the IC50 in test [1] (Homo sapiens, NCI-H1975, 72 h) was 10 to 100 nM; in test [2] (Homo sapiens, PC-9, 72 h) it was ≥ 1000 nM; in test [3] (Homo sapiens, HCC827, 72 h) it was ≥ 1000 nM.
As for `COc1cc(N2CCN(C(=O)CN3CCC(c4ccc5c(N6CCC(=O)NC6=O)nn(C)c5c4)CC3)CC2)ccc1Nc1ncc(Cl)c(Nc2ccccc2)n1` [Compound T-14], the IC50 in test [1] (Homo sapiens, NCI-H1975, 72 h) is 10 to 100 nM; in test [2] (Homo sapiens, PC-9, 72 h), ≥ 1000 nM; in test [3] (Homo sapiens, HCC827, 72 h) it was ≥ 1000 nM.
As for `COc1cc(N2CCN(C(=O)CN3CCC(c4ccc(NC5CCC(=O)NC5=O)cc4)CC3)CC2)ccc1Nc1ncc(C(F)(F)F)c(Nc2ccccc2P(C)(C)=O)n1` (stereo not shown) [Compound T-46], the IC50 in test [1] (Homo sapiens, NCI-H1975, 72 h) is 10 to 100 nM; in test [2] (Homo sapiens, PC-9, 72 h), ≥ 1000 nM; in test [3] (Homo sapiens, HCC827, 72 h), 100 to 1000 nM.
As to `COc1cc(N2CCN(C(=O)CN3CCC(c4ccc(NC5CCC(=O)NC5=O)cc4)CC3)CC2)ccc1Nc1ncc(C(F)(F)F)c(Nc2ccc(F)cc2)n1` (stereo not shown) [Compound T-51], the IC50 in test [1] (Homo sapiens, NCI-H1975, 72 h) is 10 to 100 nM; in test [2] (Homo sapiens, PC-9, 72 h), ≥ 1000 nM; in test [3], ≥ 1000 nM.
For the compound `COc1cc(N2CCN(C(=O)CN3CCC(c4ccc(NC5CCC(=O)NC5=O)cc4)CC3)CC2)ccc1Nc1ncc(C(F)(F)F)c(Nc2ccc(F)cc2)n1` (stereo not shown) [Compound T-52], the IC50 in test [1] is 10 to 100 nM; in test [2], ≥ 1000 nM; in test [3] it was 100 to 1000 nM.
`COc1cc(N2CCN(C(=O)CN3CCC(c4ccc(NC5CCC(=O)NC5=O)cc4)CC3)CC2)c(C)cc1Nc1ncc(C(F)(F)F)c(Nc2ccccc2C(C)=O)n1` (stereo not shown) [Compound T-58]: the IC50 fell in the range of 10 to 100 nM in test [1] (Homo sapiens, NCI-H1975, 72 h); 100 to 1000 nM in test [2] (Homo sapiens, PC-9, 72 h); 100 to 1000 nM in test [3] (Homo sapiens, HCC827, 72 h).
For `COc1cc(N2CCN(C(=O)CN3CCC(c4ccc(NC5CCC(=O)NC5=O)cc4)CC3)CC2)c(C)cc1Nc1ncc(Br)c(Nc2ccccc2C(C)=O)n1` (stereo not shown) [Compound T-59], the IC50 in test [1] (Homo sapiens, NCI-H1975, 72 h) was in the range of 10 to 100 nM; in test [2] (Homo sapiens, PC-9, 72 h), 100 to 1000 nM; in test [3] (Homo sapiens, HCC827, 72 h), 100 to 1000 nM.
In the case of `COc1cc(C2CCN(C(=O)CN3CCC(c4ccc(NC5CCC(=O)NC5=O)cc4)CC3)CC2)ccc1Nc1ncc(Cl)c(Nc2ccccc2C(C)=O)n1` (stereo not shown) [Compound T-69], the IC50 in test [1], in test [2] and in test [3] was 100 to 1000 nM each time.
As for `COc1cc(N2CCN(C(=O)CN3CCN(c4ccc(NC5CCC(=O)NC5=O)cc4)CC3)CC2)ccc1Nc1ncc(Cl)c(Nc2ccccc2C(C)=O)n1` (stereo not shown) [Compound T-82], the IC50 in test [1] (Homo sapiens, NCI-H1975, 72 h) was 100 to 1000 nM; in test [2] (Homo sapiens, PC-9, 72 h), ≥ 1000 nM; in test [3] (Homo sapiens, HCC827, 72 h), ≥ 1000 nM.
On to `COc1cc(N2CCN(C(=O)CN3CCC(c4ccc(NC5CCC(=O)NC5=O)nc4)CC3)CC2)ccc1Nc1ncc(Cl)c(Nc2ccccc2C(C)=O)n1` (stereo not shown) [Compound T-100], for which the IC50 in test [1] (Homo sapiens, NCI-H1975, 72 h) is 100 to 1000 nM; in test [2] (Homo sapiens, PC-9, 72 h), 100 to 1000 nM; in test [3] (Homo sapiens, HCC827, 72 h), 100 to 1000 nM.
Take `COc1cc(N2CCN(C(=O)CN3CCN(c4ccc5c(c4)CN(C4CCC(=O)NC4=O)C5=O)CC3)CC2)ccc1Nc1ncc(Cl)c(Nc2ccccc2C(C)=O)n1` (stereo not shown) [Compound T-109]: the half-inhibitory concentration (IC50) in test [1] (Homo sapiens, NCI-H1975, 72 h) is 100 to 1000 nM; in test [2] (Homo sapiens, PC-9, 72 h) it was ≥ 1000 nM; in test [3] (Homo sapiens, HCC827, 72 h), ≥ 1000 nM.
On to `COc1cc(N2CCN(C(=O)CN3CCC(c4ccc(NC5CCC(=O)NC5=O)cc4)CC3)CC2)c(C)cc1Nc1ncc(Cl)c(Nc2ccccc2)n1` (stereo not shown) [Compound T-122], for which the IC50 was 100 to 1000 nM in test [1] (Homo sapiens, NCI-H1975, 72 h); 100 to 1000 nM in test [2] (Homo sapiens, PC-9, 72 h); 100 to 1000 nM in test [3] (Homo sapiens, HCC827, 72 h).
Turning to `COc1cc(N2CCN(CCCN3CCC(c4ccc(NC5CCC(=O)NC5=O)cc4)CC3)CC2)ccc1Nc1ncc(Cl)c(Nc2ccccc2C(C)=O)n1` (stereo not shown) [Compound T-183], the IC50 in test [1] (Homo sapiens, NCI-H1975, 72 h) was 100 to 1000 nM.

For the origin of these results see patent publication US20250129086A1, “COMPOUND FOR DEGRADING EGFR PROTEIN AND USE THEREOF” (TYK MEDICINES, INC., priority 2021, published 2025).
